Measurements from ChEMBL document CHEMBL4765285, “Discovery of orally active indirubin-3'-oxime derivatives as potent type 1 FLT3 inhibitors for acute myeloid leukemia” (Eur J Med Chem, 2020).
Activity calls are given as the source filed them. The rule behind the calls is not given here.

Assays:
[1] = Cmax in ICR mouse at 10 mg/kg, iv or po measured up to 1440 mins by LC-MS/MS analysis; type: ADME, organism-based; set-up: dose 10 mg/kg, time <=1440; conditions: in vivo
[2] = target: Receptor-type tyrosine-protein kinase FLT3 (Homo sapiens) (UniProt P36888); assay: Inhibition of FLT3 in human MV4-11 cells assessed as reduction in STAT5 phosphorylation at 10 nM incubated for 4 hrs by Western blot analysis; type: cell-based
[3] = target: Tyrosine-protein kinase Mer (Homo sapiens) (UniProt Q12866); assay: Inhibition of human MER at 100 nM in presence of ATP relative to control
[4] = tested on: HepG2; assay: cells; conditions: Homo sapiens
Description: Antiproliferative activity against human HepG2 cells assessed as cell growth inhibition by WST assay

[5] = target: Receptor-type tyrosine-protein kinase FLT3 (Homo sapiens, UniProt P36888, D835Y); assay: Inhibition of human FLT3 D835Y mutant in presence of ATP
[6] = tested on: MDA-MB-231; assay: cells; conditions: Homo sapiens, MDA-MB-231, read-out: INH
Description: Antiproliferative activity against human MDA-MB-231 cells assessed as cell growth inhibition at 1 uM by WST assay relative to control

[7] = target: Receptor-type tyrosine-protein kinase FLT3 (Homo sapiens) (UniProt P36888); assay: Inhibition of FLT3 in human MV4-11 cells assessed as reduction in Erk1/2 phosphorylation at 0.01 to 1 uM incubated for 4 hrs by Western blot analysis; type: cell-based; conditions: dose 0.01-1 µM
[8] = tested on: MOLM-14; assay: cells; conditions: Homo sapiens
Description: Antiproliferative activity against human MOLM14 cells harboring ITD mutant assessed as cell growth inhibition by MTT assay

[9] = target: Vascular endothelial growth factor receptor 3 (Homo sapiens, UniProt P35916); assay: Inhibition of human FLT4 at 100 nM in presence of ATP relative to control
[10] = target: Proto-oncogene tyrosine-protein kinase receptor Ret (Homo sapiens, UniProt P07949); assay: Inhibition of human RET in presence of ATP
[11] = tested on: MOLM-14; assay: cells; conditions: Homo sapiens; remark: listed apart in the source
Description: Antiproliferative activity against human MOLM14 cells harboring ITD/F691L mutant assessed as cell growth inhibition by MTT assay

[12] = target: Proto-oncogene tyrosine-protein kinase Src (Homo sapiens, UniProt P12931); assay: Inhibition of human c-SRC in presence of ATP
[13] = target: Cyclin-dependent kinase 5 (Homo sapiens) (UniProt Q00535); assay: Inhibition of human CDK5 at 100 nM in presence of ATP relative to control
[14] = target: Cyclin-dependent kinase 1 (Homo sapiens) (UniProt P06493); assay: Inhibition of human CDK1 at 100 nM in presence of ATP relative to control
Chain of Cyclin-dependent kinase 1 (Homo sapiens) (P06493 whole entry, looked up): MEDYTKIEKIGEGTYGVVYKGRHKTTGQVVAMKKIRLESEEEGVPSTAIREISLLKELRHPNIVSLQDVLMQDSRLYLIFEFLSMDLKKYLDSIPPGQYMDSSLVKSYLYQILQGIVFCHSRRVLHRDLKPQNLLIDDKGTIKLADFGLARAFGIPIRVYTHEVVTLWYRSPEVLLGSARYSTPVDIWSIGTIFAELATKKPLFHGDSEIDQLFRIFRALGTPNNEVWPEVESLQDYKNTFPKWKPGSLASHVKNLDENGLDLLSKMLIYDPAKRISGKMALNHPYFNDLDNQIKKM

Chain of Vascular endothelial growth factor receptor 3 (P35916 whole entry): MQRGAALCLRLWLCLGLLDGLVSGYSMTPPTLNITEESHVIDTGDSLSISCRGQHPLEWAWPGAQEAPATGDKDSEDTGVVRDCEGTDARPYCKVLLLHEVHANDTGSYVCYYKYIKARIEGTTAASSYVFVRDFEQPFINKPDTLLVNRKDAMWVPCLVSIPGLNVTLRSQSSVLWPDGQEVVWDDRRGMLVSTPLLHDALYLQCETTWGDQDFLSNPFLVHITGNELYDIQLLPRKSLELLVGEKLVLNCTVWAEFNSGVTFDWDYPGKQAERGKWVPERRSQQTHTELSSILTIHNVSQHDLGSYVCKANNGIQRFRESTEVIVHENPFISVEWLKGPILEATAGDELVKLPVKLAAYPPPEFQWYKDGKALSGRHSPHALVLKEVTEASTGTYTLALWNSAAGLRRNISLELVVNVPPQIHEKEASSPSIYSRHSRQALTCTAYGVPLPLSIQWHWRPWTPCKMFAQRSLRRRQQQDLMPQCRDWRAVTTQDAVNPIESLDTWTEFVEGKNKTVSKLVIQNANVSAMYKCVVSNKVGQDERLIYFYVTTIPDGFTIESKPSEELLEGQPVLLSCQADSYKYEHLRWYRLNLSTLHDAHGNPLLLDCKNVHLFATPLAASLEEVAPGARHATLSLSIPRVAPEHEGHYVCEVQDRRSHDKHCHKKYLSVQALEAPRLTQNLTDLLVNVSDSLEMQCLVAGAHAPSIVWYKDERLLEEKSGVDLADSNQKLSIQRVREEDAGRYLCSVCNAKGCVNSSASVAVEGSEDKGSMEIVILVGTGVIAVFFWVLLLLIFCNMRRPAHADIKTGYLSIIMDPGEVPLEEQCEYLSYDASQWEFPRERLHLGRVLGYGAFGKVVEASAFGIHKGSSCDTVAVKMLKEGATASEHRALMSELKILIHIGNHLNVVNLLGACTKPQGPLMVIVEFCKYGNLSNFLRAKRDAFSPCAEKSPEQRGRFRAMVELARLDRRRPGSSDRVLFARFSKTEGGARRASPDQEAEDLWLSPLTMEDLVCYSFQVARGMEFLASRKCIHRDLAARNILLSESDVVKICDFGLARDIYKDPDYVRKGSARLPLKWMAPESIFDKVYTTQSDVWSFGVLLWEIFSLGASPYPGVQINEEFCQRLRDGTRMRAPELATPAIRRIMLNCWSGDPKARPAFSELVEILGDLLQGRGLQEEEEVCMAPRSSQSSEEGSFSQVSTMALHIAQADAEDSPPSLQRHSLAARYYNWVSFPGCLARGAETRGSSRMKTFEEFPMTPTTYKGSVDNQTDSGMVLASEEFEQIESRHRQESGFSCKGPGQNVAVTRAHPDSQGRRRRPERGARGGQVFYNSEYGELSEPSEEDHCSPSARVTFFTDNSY
Chain of Cyclin-dependent kinase 5 (Homo sapiens) (Q00535 whole entry, looked up): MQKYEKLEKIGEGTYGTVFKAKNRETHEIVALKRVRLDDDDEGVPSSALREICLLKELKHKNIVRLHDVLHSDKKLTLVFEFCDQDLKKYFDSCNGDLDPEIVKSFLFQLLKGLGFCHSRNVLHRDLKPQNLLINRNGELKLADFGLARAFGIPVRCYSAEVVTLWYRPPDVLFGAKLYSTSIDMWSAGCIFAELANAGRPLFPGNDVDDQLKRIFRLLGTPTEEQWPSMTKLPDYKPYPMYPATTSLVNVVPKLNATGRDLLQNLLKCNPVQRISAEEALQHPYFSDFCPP
Chain of Proto-oncogene tyrosine-protein kinase Src (P12931 2-536 limits assumed): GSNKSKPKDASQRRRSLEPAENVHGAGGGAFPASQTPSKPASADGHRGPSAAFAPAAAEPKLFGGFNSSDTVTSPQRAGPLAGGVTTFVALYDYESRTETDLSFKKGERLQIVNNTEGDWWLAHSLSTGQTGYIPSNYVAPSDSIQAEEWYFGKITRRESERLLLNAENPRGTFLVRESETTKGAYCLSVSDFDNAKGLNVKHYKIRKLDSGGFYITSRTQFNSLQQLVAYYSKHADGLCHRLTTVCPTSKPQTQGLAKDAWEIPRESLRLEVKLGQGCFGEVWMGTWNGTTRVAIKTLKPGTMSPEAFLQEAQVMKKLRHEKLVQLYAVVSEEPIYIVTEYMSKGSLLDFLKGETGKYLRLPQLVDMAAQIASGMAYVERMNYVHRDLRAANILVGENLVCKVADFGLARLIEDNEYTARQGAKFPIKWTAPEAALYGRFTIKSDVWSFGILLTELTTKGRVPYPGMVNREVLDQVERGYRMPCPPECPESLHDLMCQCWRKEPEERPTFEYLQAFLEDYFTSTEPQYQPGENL
Chain of Tyrosine-protein kinase Mer (Homo sapiens) (Q12866 whole entry): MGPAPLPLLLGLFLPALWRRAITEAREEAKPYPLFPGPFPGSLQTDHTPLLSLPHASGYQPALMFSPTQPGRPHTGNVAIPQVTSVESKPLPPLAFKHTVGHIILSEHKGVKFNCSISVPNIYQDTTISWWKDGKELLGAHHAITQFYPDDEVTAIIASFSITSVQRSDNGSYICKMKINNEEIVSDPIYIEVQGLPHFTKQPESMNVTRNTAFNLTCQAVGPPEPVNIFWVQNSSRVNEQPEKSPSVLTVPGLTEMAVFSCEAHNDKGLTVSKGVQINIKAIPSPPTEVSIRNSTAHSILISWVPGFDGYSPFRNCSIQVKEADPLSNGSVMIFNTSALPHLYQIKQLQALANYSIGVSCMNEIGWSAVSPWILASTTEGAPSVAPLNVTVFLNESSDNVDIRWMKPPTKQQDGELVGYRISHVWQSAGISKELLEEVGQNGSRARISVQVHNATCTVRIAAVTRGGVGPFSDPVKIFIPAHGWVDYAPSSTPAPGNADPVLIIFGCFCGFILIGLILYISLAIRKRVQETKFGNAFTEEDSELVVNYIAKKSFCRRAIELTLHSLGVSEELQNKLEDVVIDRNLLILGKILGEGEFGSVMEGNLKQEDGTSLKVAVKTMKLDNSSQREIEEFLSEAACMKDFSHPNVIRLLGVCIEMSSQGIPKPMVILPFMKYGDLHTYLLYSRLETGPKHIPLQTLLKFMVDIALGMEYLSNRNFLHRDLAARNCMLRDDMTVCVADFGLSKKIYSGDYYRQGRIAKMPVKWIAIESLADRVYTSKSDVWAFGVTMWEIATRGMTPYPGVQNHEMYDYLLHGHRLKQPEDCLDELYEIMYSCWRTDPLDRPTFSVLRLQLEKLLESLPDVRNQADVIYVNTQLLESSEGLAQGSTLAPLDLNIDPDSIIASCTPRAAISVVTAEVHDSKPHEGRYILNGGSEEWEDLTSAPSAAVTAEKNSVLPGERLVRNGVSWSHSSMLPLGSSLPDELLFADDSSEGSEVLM
Chain of Proto-oncogene tyrosine-protein kinase receptor Ret (P07949 whole entry): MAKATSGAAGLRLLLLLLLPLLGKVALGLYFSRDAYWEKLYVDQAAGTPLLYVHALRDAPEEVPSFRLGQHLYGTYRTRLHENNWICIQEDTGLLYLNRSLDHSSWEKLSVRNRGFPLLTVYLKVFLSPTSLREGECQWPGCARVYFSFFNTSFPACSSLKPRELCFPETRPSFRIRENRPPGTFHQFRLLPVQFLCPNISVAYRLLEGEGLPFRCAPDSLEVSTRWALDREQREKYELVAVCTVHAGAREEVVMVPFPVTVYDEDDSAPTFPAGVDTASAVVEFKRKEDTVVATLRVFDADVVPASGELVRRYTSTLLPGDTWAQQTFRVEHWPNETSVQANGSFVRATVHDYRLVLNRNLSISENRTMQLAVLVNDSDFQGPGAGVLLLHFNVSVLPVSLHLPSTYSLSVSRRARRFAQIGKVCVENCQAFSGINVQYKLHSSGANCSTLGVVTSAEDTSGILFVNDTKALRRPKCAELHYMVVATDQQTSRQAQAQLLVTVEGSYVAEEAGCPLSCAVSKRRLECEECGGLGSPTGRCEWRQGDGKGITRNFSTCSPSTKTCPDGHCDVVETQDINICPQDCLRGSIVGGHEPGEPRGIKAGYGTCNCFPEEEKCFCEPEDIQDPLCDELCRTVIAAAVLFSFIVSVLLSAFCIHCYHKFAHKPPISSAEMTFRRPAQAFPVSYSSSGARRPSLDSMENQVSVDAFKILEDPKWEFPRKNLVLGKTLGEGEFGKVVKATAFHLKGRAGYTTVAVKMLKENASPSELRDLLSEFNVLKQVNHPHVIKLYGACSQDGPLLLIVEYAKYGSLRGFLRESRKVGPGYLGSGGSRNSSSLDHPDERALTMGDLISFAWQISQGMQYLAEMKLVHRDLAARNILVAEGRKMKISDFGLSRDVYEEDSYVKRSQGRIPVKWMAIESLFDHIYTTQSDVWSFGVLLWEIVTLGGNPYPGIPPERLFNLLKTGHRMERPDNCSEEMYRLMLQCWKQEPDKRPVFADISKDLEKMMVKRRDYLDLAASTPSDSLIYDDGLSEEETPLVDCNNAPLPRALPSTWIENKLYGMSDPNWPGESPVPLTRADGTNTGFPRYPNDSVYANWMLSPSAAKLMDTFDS

Structure (SMILES): Cl.O=C1Nc2ccc(F)cc2/C1=C1/Nc2ccccc2/C1=N\OCCN1CCNCC1
- Cmax [1]: 36.5 ng/mL
- inhibition [2]: 100%
- inhibition [3]: 100%
- GI50 [4]: 1100 nM
- IC50 [5]: 0.32 nM
- inhibition at 1 µM [6]: 8.95%
- inhibition [7]: Active
- GI50 [8]: 1.85 nM
- inhibition [9]: 89%
- IC50 [10]: 1.21 nM
- GI50 [11]: 3.27 nM
- IC50 [12]: 9.52 nM
- inhibition [13]: 54%
- inhibition [14]: 21%
